# Measurements taken from patent publication US4175544A, “Iodo-aryl carbonates for use in methods in radiography” (Lafayette Pharmacal Inc., priority 1978, dated 1979).
# Tests used:
# [1] = tested on: lymph nodes (popliteal and iliac); settings: dog, in vivo
# Experimental: Four iodinated organic carbonates prepared as described hereinabove were evaluated for use as lymphographic agents in laboratory dogs.
# Six adult mongrel dogs, preconditioned for at least two weeks at the Lafayette Pharmacal, Inc. facilities, were used for the study. The dogs were removed from food the evening prior to dosing. Each animal was first anesthetized with Rompun and sodium pentobarbital and intubated to assist in breathing. A standard lymphogram was then performed on one rear leg only of each animal using known laboratory procedures. Specifically, a blue dye was first injected between the toes of the right hind limb to locate the lymph ducts. A single duct was then disected out and cannulated. One of the six compounds was then selected and a syringe pump used to inject the test compound into the duct at a constant rate. In this regard, the dogs were injected with an effective amount of one (1) cc of test substance per 20 lbs. of body weight. The iodinated phenyl compounds were brought to about body temperature prior to the injecting and then were injected while at about the body temperature.
# Radiographs were then taken of each animal after confirming the location of the injected bolus by fluoroscopy means. The animals were given atropine sulfate and observations made while they were allowed to recover from the anesthetic unassisted.
# The animals were then returned to their cages and radiographs were taken at the end of 24 hours, 3 days and 1, 2, 3, 4 and 6 weeks to determine the radiographic clearance rate of each tested compound. Daily urine samples were also collected and subjected to fluorescent exitation analysis to determine the urinary clearance rate for each compound. Six weeks after the initial lymphogram, the animals were sacrificed and the popliteal and iliac nodes on both sides removed. The nodes from the dosed side and undosed side of each animal were then compared histopathologically.
# albino mice [2] = test: Initial toxicity screen: Approximate Lethal Dose by intraperitoneal injection (Deichmann and LeBlanc); type: in vivo; settings: for Approximate Lethal Dose (ALD): intraperitoneal, albino mice, neat liquid or suspension, footnote (b): largest dose administered (e, f, i, p, q)
# Experimental: As an initial toxicity screen for the compounds shown hereinabove, the neat liquid or suspension of the material was injected into the peritoneal cavity of albino mice and the Approximate Lethal Dose (ALD) determined using the method of Deichmann and LeBlanc (W. B. Deichmann and T. J. LeBlanc, J. Ind. Hyg., 25, 415 (1943)) the results of which are presented in Table II, as set forth hereinafter.
# Approximate Interperitoneal Toxicity in Mice
# Approximate Lethal Dose Ml/Kg
# brain and spinal cord = test: Suboccipital study of laboratory animals (neurotoxicity, brain and spinal cord histopathology); type: in vivo, laboratory rats; settings: rat; for Overall / histopathological response: 0.1 ml suboccipital injection, 1 to 14 weeks; for Difficulty with righting responses / Recovery from the injection procedure: suboccipital injection; for Recovery from the injection procedure: as a group; for Lipid puddle formation: compared with air and Pantopaque
# Experimental: Six iodinated phenyl carbonate compounds prepared as described above, as well as air and Pantopaque, a known prior art radiographic compound, were injected suboccipitally into separate groups of 30 laboratory rats. The six iodinated compounds under examination were p-iodobenzyl-n-hexyl carbonate, p-iodobenzyl-n-octyl carbonate, p-iodobenzyl-2-octyl carbonate, 2-ethylhexyl-p-iodobenzyl carbonate, n-hexyl-3-(p-iodophenyl)propyl carbonate and n-hexyl-2-(p-iodobenzyl)butyl carbonate. Six rats from each injected group were then sacrificed at periodic intervals and the brain and spinal cord removed for histopathological evaluation. By comparing the results of air and Pantopaque with the results using the iodinated compounds, an evaluation of their relative neurotoxicity was obtained.
# The groups of rats were first subjected to standard quarantine procedure at the Lafayette Pharmacol, Inc. facilities for at least two weeks prior to dosing. About 18 hours prior to dosing, food was withdrawn but water was allowed ad lib. During injection, each animal was anesthetized in an ether chamber and the back of the neck closely clipped. After placing the animal on a board with the head declined at 45°, a puncture was made just at the base of the atlas and 0.1 ml. of the selected test substance was injected. Radiographs were then taken immediately after dosing to confirm the intrathecal location of the injected bolus, and the animals were returned to their cages for observation.
# One group of six animals for each tested substance was then sacrificed at the following elapsed times post injection: 1 week; 2 weeks; 4 weeks; 8 weeks and 14 weeks. At sacrifice, the animal were perfused with saline and formalin. Each animal was again radiographed and the brain and spinal cord then removed and stored for histopathological study.
# lung [3] = settings: dog, in vivo
# Experimental: (§1) Food was withdrawn from each animal 12 hours prior to dosing with water given ad lib. The animals were then first anesthetized with sodium pentobarbital and maintained on halothane. Each animal was then intubated with a tracheal tube and scouting X-ray films were taken to confirm its position. Next, a stainless steel guide wire was passed through a polypropylene tube, i.e., insuflation tube, and this combination was passed into the animal's lung. The position of this guide wire was then confirmed by fluoroscopy and the guide wire then removed, thus leaving the insulfation tube in place.
# (§2) In this regard, the amount of selected iodinated phenyl carbonate compound varied for each animal according to weight, with 6 cc being given to the heaviest test dog. Oxygen at 20 psi was then used to insuflate a caudal lobe of one lung of each animal while monitoring with fluoroscopy. Lateral and direct view radiographs were then taken. […] Food was then given after 12 hours.
# (§3) At 2 weeks, the animals were then anesthetized and radiographs taken while the lungs were expanded by air insuflation. The animals were then sacrificed by injection of saline and the dosed lobe of each animal examined histopathologically and compared with the corresponding undosed lobe.
# albino mice [4] = test: Initial toxicity screen: Approximate Lethal Dose by intraperitoneal injection (Deichmann and LeBlanc); type: in vivo; settings: 20% w/v in Sesame oil, for r also footnote (b): largest dose administered
# lung [5] = test: Bronchography study of laboratory animals (insuflation of a caudal lobe of one lung); settings: dog, dosed lobe, 2 weeks
# Experimental: as §1, §2, §3
smiles,measurement,setting,value
CCCCOC(=O)OCc1ccc(I)cc1 [p-iodobenzyl-n-butyl carbonate],Histopathology of dosed nodes,[1],no change in the nodes
same,Overall result after six weeks,[1],indistinguishable from undosed animals
same,"Rate of clearance and elimination (order, fastest to slowest)",[1],almost the same
same,Time to radiographically clear,[1],≤ 6 weeks
"CCCCC(CC)COC(=O)OCc1ccc(I)cc1 (stereo not drawn) [g, 2-Ethylhexyl-p-Iodobenzyl Carbonate]",Approximate Lethal Dose (ALD),albino mice [2],15 mL/kg
same,Overall / histopathological response,brain and spinal cord,Relatively more severe histopathological responses
same,Difficulty with righting responses,brain and spinal cord,more animals exhibiting righting difficulty
same,Recovery from the injection procedure,brain and spinal cord,taking longer to recover
"CCCC(CC)OC(=O)OCc1ccc(I)cc1 (stereo not drawn) [h, 3-Hexyl-p-Iodobenzyl Carbonate]",Approximate Lethal Dose (ALD),albino mice [2],3 mL/kg
"CCCCCCOC(=O)OCc1cc(I)cc(I)c1 [s, 3,5-Diiodobenzyl-n-Hexyl Carbonate]",Approximate Lethal Dose (ALD),albino mice [2],5 mL/kg
"CCCCCCOC(=O)Oc1ccc(I)cc1 [j, n-Hexyl-p-Iodophenyl Carbonate]",Approximate Lethal Dose (ALD),albino mice [2],7 mL/kg
"CCCCCCOC(=O)OCc1ccc(I)cc1 [c, n-Hexyl-p-Iodobenzyl Carbonate]",Approximate Lethal Dose (ALD),albino mice [2],7 mL/kg
same,Overall / histopathological response,brain and spinal cord,Relatively more severe histopathological responses
same,Difficulty with righting responses,brain and spinal cord,more animals exhibiting righting difficulty
same,Recovery from the injection procedure,brain and spinal cord,taking longer to recover
same,"Rate of clearance and elimination (order, fastest to slowest)",[1],"p-iodobenzyl-n-butyl carbonate, p-iodobenzyl-n-hexyl carbonate, p-iodobenzyl-n-octyl carbonate and ethiodol"
same,Time to radiographically clear,[1],≤ 6 weeks
"COC(=O)OC(C)c1ccc(I)cc1 (stereo not drawn) [v, p-Iodo-sec-Phenethyl Methyl Carbonate, reference compound]",Intraperitoneal toxicity (in words),albino mice [2]; compared with the compounds of Table II,more toxic
same,Approximate Lethal Dose (ALD),albino mice [2],1.5 mL/kg
"CCCCCCCCOC(=O)Oc1ccc(I)cc1 [k, n-Octyl-p-Iodphenyl Carbonate]",Approximate Lethal Dose (ALD),albino mice [2],7 mL/kg
"CC(C)CC(C)OC(=O)OCc1ccc(I)cc1 (stereo not drawn) [d, p-Iodobenzyl-4-methyl-2-Pentyl Carbonate]",Approximate Lethal Dose (ALD),albino mice [2],7 mL/kg
CCOC(=O)OCc1ccc(I)cc1 [p-iodobenzyl ethyl carbonate],Clearance of nodes,[1],~3 days
same,Histopathology of dosed nodes,[1],no change in the nodes
same,Overall result after six weeks,[1],indistinguishable from undosed animals
same,"Rate of clearance and elimination (order, fastest to slowest)",[1],fastest
"CCCCCCOC(=O)OCC(CCCC)Cc1ccc(I)cc1 (stereo not drawn) [q, n-Hexyl-2-(p-Iodobenzyl)-n-Hexyl Carbonate]",Approximate Lethal Dose (ALD),albino mice [2],greater than 15 Ml/Kg
"CCCCCCCCOC(=O)OCc1cccc(I)c1 [t, m-Iodobenzyl-n-Octyl Carbonate]",Approximate Lethal Dose (ALD),albino mice [2],greater than 17 Ml/Kg
"CCCCCCCCOC(=O)OCc1ccc(I)cc1 [e, n-Octyl-p-Iodobenzyl Carbonate]",Approximate Lethal Dose (ALD),albino mice [2],15 mL/kg
same,Overall / histopathological response,brain and spinal cord,overall responses close to air and Pantopaque approximating normal
same,Lipid puddle formation,brain and spinal cord,slightly more lipid puddle formation
same,Difficulty with righting responses,brain and spinal cord,an occasional animal showing some difficulty with righting responses
same,Histopathology of dosed nodes,[1],mild granulomatous lymphadenitis or lipoidal lymphadenopathy
same,Overall result after six weeks,[1],excellent overall results with only minor histopathological responses
same,Radiographic state of iliac node,[1],small droplets could be seen
same,Radiographic state of popliteal node,[1],clear
same,"Rate of clearance and elimination (order, fastest to slowest)",[1],"p-iodobenzyl-n-hexyl carbonate, p-iodobenzyl-n-octyl carbonate and ethiodol"
"CCCCCCOC(=O)OCCc1ccc(I)cc1 [m, n-Hexyl-p-Iodophenethyl Carbonate]",Approximate Lethal Dose (ALD),albino mice [2],7 mL/kg
"CCCCCCC(C)OC(=O)OCc1ccc(I)cc1 (stereo not drawn) [i, 2-Octyl-p-Iodobenzyl Carbonate]",Approximate Lethal Dose (ALD),albino mice [2],15 mL/kg
same,Overall / histopathological response,brain and spinal cord,Relatively more severe histopathological responses
same,Difficulty with righting responses,brain and spinal cord,more animals exhibiting righting difficulty
same,Recovery from the injection procedure,brain and spinal cord,taking longer to recover
"CCCCCCOC(=O)OCCCc1ccc(I)cc1 [n, n-Hexyl-3-(p-Iodophenyl)Propyl Carbonate]",Approximate Lethal Dose (ALD),albino mice [2],15 mL/kg
same,Overall / histopathological response,brain and spinal cord,Relatively more severe histopathological responses
same,Difficulty with righting responses,brain and spinal cord,more animals exhibiting righting difficulty
same,Recovery from the injection procedure,brain and spinal cord,taking longer to recover
"CC(C)COC(=O)OCc1ccc(I)cc1 [a, p-Iodobenzyl Isobutyl Carbonate]",Approximate Lethal Dose (ALD),albino mice [2],3 mL/kg
"CCCCCCOC(=O)OCCC(C)c1ccc(I)cc1 (stereo not drawn) [o, n-Hexyl-3-(p-Iodophenyl)Butyl Carbonate]",Approximate Lethal Dose (ALD),albino mice [2],7 mL/kg
"CCCCCCOC(=O)OC(C)c1ccc(I)cc1 (stereo not drawn) [l, n-Hexyl-p-Iodo-sec-Phenethyl Carbonate]",Approximate Lethal Dose (ALD),albino mice [2],10.5 mL/kg
CCCCOC(=O)SCc1ccc(I)cc1 [S-(p-iodobenzyl)-n-butyl thiolcarbonate],Histopathology of dosed nodes,[1],mild granulomatous lymphadenitis or lipoidal lymphadenopathy
same,Overall result after six weeks,[1],excellent overall results with only minor histopathological responses
same,"Rate of clearance and elimination (order, fastest to slowest)",[1],almost the same
same,Time to radiographically clear,[1],≤ 6 weeks
"CCCCCCCCCCOC(=O)OCc1ccc(I)cc1 [f, n-Decyl-p-Iodobenzyl Carbonate]",Approximate Lethal Dose (ALD),albino mice [2],10.5 mL/kg
"CCOC(=O)OCc1c(I)cc(I)c(NC(C)=O)c1I [u, 3-acetamido-(2,4,6-triiodobenzyl)ethyl carbonate]",Histopathological alterations of dosed lobes,lung [3],obliterative granulomatous bronchiolitis
same,Persistence of compound in lung,lung [3],some evidence the iodinated phenyl carbonate had persisted and was responsible for this granulomatous bronchiolitis
same,Approximate Lethal Dose (ALD),albino mice [4],greater than 22 Ml/Kg
same,Gross lesions related to instillation,lung [5],No gross lesions were found that appeared specifically related to instillation of the contrast medium
"CCCCCCOC(=O)OCC(CC)Cc1ccc(I)cc1 (stereo not drawn) [p, n-Hexyl-2-(p-Iodobenzyl)Butyl Carbonate]",Approximate Lethal Dose (ALD),albino mice [2],greater than 15 Ml/Kg
same,Overall / histopathological response,brain and spinal cord,overall responses close to air and Pantopaque approximating normal
same,Lipid puddle formation,brain and spinal cord,slightly more lipid puddle formation
same,Difficulty with righting responses,brain and spinal cord,an occasional animal showing some difficulty with righting responses
"CCCCCOC(=O)OCc1ccc(I)cc1 [b, n-Amyl-p-Iodobenzyl Carbonate]",Approximate Lethal Dose (ALD),albino mice [2],3 mL/kg
"CCCCCCOC(=O)OCc1c(I)cc(I)c(N)c1I [r, 3-Amino-2,4,6-Triiodobenzyl-n-Hexyl Carbonate]",Approximate Lethal Dose (ALD),albino mice [4],greater than 11 Ml/Kg
